Results as given in PubChem BioAssay AID306 (DTP/NCI, 2004).
Where “and” joins values, the source holds several entries; their conditions need not be identical. Equal entries are not always repeated. Inconclusive results and toxic doses are left out. The calls were made as follows: active = survival T/C of 150% or more; inactive = T/C below 125% in these data.

Tested on: BDF1 mice, L1210 Methyl-GAG-resistant leukemia, survival T/C
Test: NCI In Vivo Anticancer Drug Screen. Data for tumor model L1210 Leukemia resistant to Methyl-GAG; NSC 32946 (subcutaneous) in B6D2F1 (BDF1) mice
Details: endpoint: mean survival time, higher = longer survival
Description: The antitumor activity of compounds was measured in mice bearing transplantable tumors. Survival or tumor size were measured and the results are expressed as the measurement made in the treated group (T) divided by the measurement made in the vehicle treated control group (C). The tumor model used in this assay is L1210 Leukemia resistant to Methyl-GAG; NSC 32946 (subcutaneous) in B6D2F1 (BDF1) mice

[1] = dose: 62.5 mg/kg/injection, schedule: Q01DX Z (sc), vehicle: steriod suspending solution

Measured: T/C

O[C@H](CN1CC1)[C@@H](O)CN1CC1
active: dose: 0.5 mg/kg/injection, schedule: Q01DX Z (ip), vehicle: carboxymethylcellulose (CMC) 170 % of control and 178 % of control
inactive: dose: 0.06 mg/kg/injection, schedule: Q01DX Z (ip), vehicle: carboxymethylcellulose (CMC) 97 % of control | dose: 0.12 mg/kg/injection, schedule: Q01DX Z (ip), vehicle: carboxymethylcellulose (CMC) 110 % of control | dose: 1.0 mg/kg/injection, schedule: Q01DX Z (ip), vehicle: carboxymethylcellulose (CMC) 100 % of control | dose: 63.0 micrograms/kg/injection, schedule: Q01DX Z (ip), vehicle: carboxymethylcellulose (CMC) 101 % of control | dose: 125.0 micrograms/kg/injection, schedule: Q01DX Z (ip), vehicle: carboxymethylcellulose (CMC) 109 % of control

O=C(Nc1ccc(C2=NCCN2)cc1)c1cccc(C(=O)Nc2ccc(C3=NCCN3)cc2)c1
inactive: dose: 1.2 mg/kg/injection, schedule: Q01DX Z (ip), vehicle: water 102 % of control | dose: 2.4 mg/kg/injection, schedule: Q01DX Z (ip), vehicle: water 108 % of control | dose: 50.0 mg/kg/injection, schedule: Q01DX Z (ip), vehicle: water 113 % of control
active: dose: 9.4 mg/kg/injection, schedule: Q01DX Z (ip), vehicle: water 211 % of control | dose: 12.5 mg/kg/injection, schedule: Q01DX Z (ip), vehicle: water 223 % of control | dose: 18.8 mg/kg/injection, schedule: Q01DX Z (ip), vehicle: water 226 % of control | dose: 25.0 mg/kg/injection, schedule: Q01DX Z (ip), vehicle: water 236 % of control | dose: 37.5 mg/kg/injection, schedule: Q01DX Z (ip), vehicle: carboxymethylcellulose (CMC) 202 % of control | dose: 37.5 mg/kg/injection, schedule: Q01DX Z (ip), vehicle: water 287 % of control | dose: 75.0 mg/kg/injection, schedule: Q01DX Z (ip), vehicle: carboxymethylcellulose (CMC) 224 % of control | dose: 150.0 mg/kg/injection, schedule: Q01DX Z (ip), vehicle: carboxymethylcellulose (CMC) 247 % of control

O=c1cnn(C2OC(CO)C(O)C2O)c(=O)[nH]1 (configuration not stated)
inactive: dose: 8.0 mg/kg/injection, schedule: Q01DX Z (ip), vehicle: water 112 % of control | dose: 16.0 mg/kg/injection, schedule: Q01DX Z (ip), vehicle: water 122 % of control | dose: 1000.0 mg/kg/injection, schedule: Q01DX Z (ip), vehicle: water 110 % of control

O=CCC(O)C(O)C(O)CO (configuration not stated)
inactive: dose: 62.5 mg/kg/injection, schedule: Q01DX Z (ip), vehicle: carboxymethylcellulose (CMC) 98 % of control | dose: 125.0 mg/kg/injection, schedule: Q01DX Z (ip), vehicle: carboxymethylcellulose (CMC) 103 % of control | dose: 250.0 mg/kg/injection, schedule: Q01DX Z (ip), vehicle: carboxymethylcellulose (CMC) 101 % of control | dose: 500.0 mg/kg/injection, schedule: Q01DX Z (ip), vehicle: carboxymethylcellulose (CMC) 119 % of control | dose: 1000.0 mg/kg/injection, schedule: Q01DX Z (ip), vehicle: carboxymethylcellulose (CMC) 108 % of control | dose: 2000.0 mg/kg/injection, schedule: Q01DX Z (ip), vehicle: carboxymethylcellulose (CMC) 90 % of control

C[C@]12C=CC(=O)C=C1CC[C@@H]1[C@@H]2[C@@H](O)C[C@@]2(C)[C@H]1CC[C@]2(O)C(=O)CO
inactive: [1] 104 % of control | dose: 125.0 mg/kg/injection, schedule: Q01DX Z (sc), vehicle: steriod suspending solution 104 % of control and 124 % of control | dose: 250.0 mg/kg/injection, schedule: Q01DX Z (sc), vehicle: steriod suspending solution 94 % of control

C[N+](C)(C)c1ncnc2nc[nH]c12
inactive: dose: 12.5 mg/kg/injection, schedule: Q01DX Z (ip), vehicle: carboxymethylcellulose (CMC) 101 % of control | dose: 25.0 mg/kg/injection, schedule: Q01DX Z (ip), vehicle: carboxymethylcellulose (CMC) 103 % of control | dose: 50.0 mg/kg/injection, schedule: Q01DX Z (ip), vehicle: carboxymethylcellulose (CMC) 101 % of control and 112 % of control | dose: 100.0 mg/kg/injection, schedule: Q01DX Z (ip), vehicle: carboxymethylcellulose (CMC) 94 % of control and 117 % of control | dose: 200.0 mg/kg/injection, schedule: Q01DX Z (ip), vehicle: carboxymethylcellulose (CMC) 102 % of control

Nc1nc2n[nH]nc2c(=O)[nH]1
active: dose: 25.0 mg/kg/injection, schedule: Q01DX Z (ip), vehicle: other 159 % of control | dose: 100.0 mg/kg/injection, schedule: Q01DX Z (ip), vehicle: other 162 % of control and 168 % of control | dose: 400.0 mg/kg/injection, schedule: Q01DX Z (ip), vehicle: other 177 % of control

C[C@]12CCC(=O)C=C1CC[C@@H]1[C@@H]2C(=O)C[C@@]2(C)[C@H]1CC[C@]2(O)C(=O)CO
inactive: dose: 6.25 mg/kg/injection, schedule: Q01DX Z (sc), vehicle: steriod suspending solution 100 % of control | dose: 25.0 mg/kg/injection, schedule: Q01DX Z (sc), vehicle: steriod suspending solution 102 % of control | [1] 121 % of control | dose: 100.0 mg/kg/injection, schedule: Q01DX Z (sc), vehicle: steriod suspending solution 113 % of control | dose: 400.0 mg/kg/injection, schedule: Q01DX Z (sc), vehicle: steriod suspending solution 116 % of control
